Data from ChEMBL document CHEMBL1152667, “Synthesis and radiopharmacological investigation of 3-[4'-[(18)F]fluorobenzylidene]indolin-2-one as possible tyrosine kinase inhibitor” (Bioorg Med Chem, 2009).

Experiments:
[1] = tested on: Brain; assay: Biodistribution in Wistar rat brain at 1.7 MBq, iv administered as single dose measured after 1 min post-injection by gamma counting; format: ADME, organism-based; details: in vivo
[2] = Ratio of drug level in kidney to blood in Wistar rat at 1.7 MBq, iv administered as single dose measured after 5 mins post-injection; format: ADME, organism-based
[3] = tested on: Lung; assay: Biodistribution in Wistar rat lung assessed as standard uptake value at 1.7 MBq, iv administered as single dose measured after 1 min post-injection by gamma counting; format: ADME, organism-based; details: in vivo
[4] = tested on: Liver; assay: Biodistribution in Wistar rat liver assessed as standard uptake value at 1.7 MBq, iv administered as single dose measured after 10 mins post-injection by gamma counting; format: ADME, organism-based; details: in vivo
[5] = tested on: Lung; assay: Biodistribution in Wistar rat lung at 1.7 MBq, iv administered as single dose measured after 1 min post-injection by gamma counting; format: ADME, organism-based; details: in vivo
[6] = tested on: Harderian gland; assay: Biodistribution in Wistar rat harderian gland at 1.7 MBq, iv administered as single dose measured after 5 mins post-injection by gamma counting; format: ADME, organism-based; details: in vivo
[7] = tested on: Intestine; assay: Biodistribution in Wistar rat intestine at 1.7 MBq, iv administered as single dose measured after 1 min post-injection by gamma counting; format: ADME, organism-based; details: in vivo
[8] = Metabolic stability in Wistar rat blood assessed as compound remaining at 30 MBq, iv after 5 mins by radio-HPLC analysis; format: ADME, organism-based; details: read-out: Stability
[9] = Biodistribution in Wistar rat adipose tissue assessed as standard uptake value at 1.7 MBq, iv administered as single dose measured after 60 mins post-injection by gamma counting; format: ADME, organism-based; details: in vivo, 1 h
[10] = tested on: Adrenal gland; assay: Biodistribution in Wistar rat adrenal gland at 1.7 MBq, iv administered as single dose measured after 10 mins post-injection by gamma counting; format: ADME, organism-based; details: in vivo
[11] = tested on: Intestine; assay: Biodistribution in Wistar rat intestine at 1.7 MBq, iv administered as single dose measured after 60 mins post-injection by gamma counting; format: ADME, organism-based; details: in vivo, 1 h
[12] = Biodistribution in Wistar rat stomach at 1.7 MBq, iv administered as single dose measured after 1 min post-injection by gamma counting; format: ADME, organism-based; details: in vivo
[13] = Metabolic stability in Wistar rat blood assessed as compound remaining at 30 MBq, iv after 1 min by radio-HPLC analysis; format: ADME, organism-based; details: read-out: Stability
[14] = tested on: Brain; assay: Biodistribution in Wistar rat brain assessed as standard uptake value at 1.7 MBq, iv administered as single dose measured after 30 mins post-injection by gamma counting; format: ADME, organism-based; details: in vivo, 0.5 h
[15] = tested on: Spleen; assay: Biodistribution in Wistar rat spleen assessed as standard uptake value at 1.7 MBq, iv administered as single dose measured after 30 mins post-injection by gamma counting; format: ADME, organism-based; details: in vivo, 0.5 h
[16] = Ratio of drug level in heart to blood in Wistar rat at 1.7 MBq, iv administered as single dose measured after 60 mins post-injection; format: ADME, organism-based
[17] = tested on: Pancreas; assay: Biodistribution in Wistar rat pancreas assessed as standard uptake value at 1.7 MBq, iv administered as single dose measured after 30 mins post-injection by gamma counting; format: ADME, organism-based; details: in vivo, 0.5 h
[18] = tested on: Heart; assay: Biodistribution in Wistar rat heart at 1.7 MBq, iv administered as single dose measured after 10 mins post-injection by gamma counting; format: ADME, organism-based; details: in vivo
[19] = tested on: Lung; assay: Biodistribution in Wistar rat lung at 1.7 MBq, iv administered as single dose measured after 60 mins post-injection by gamma counting; format: ADME, organism-based; details: in vivo, 1 h
[20] = tested on: Heart; assay: Biodistribution in Wistar rat heart at 1.7 MBq, iv administered as single dose measured after 5 mins post-injection by gamma counting; format: ADME, organism-based; details: in vivo
[21] = Biodistribution in Wistar rat adipose tissue assessed as standard uptake value at 1.7 MBq, iv administered as single dose measured after 1 min post-injection by gamma counting; format: ADME, organism-based; details: in vivo
[22] = tested on: Testes; assay: Biodistribution in Wistar rat testes assessed as standard uptake value at 1.7 MBq, iv administered as single dose measured after 5 mins post-injection by gamma counting; format: ADME, organism-based, Testis; details: in vivo
[23] = Metabolic stability in Wistar rat blood assessed as compound remaining at 30 MBq, iv after 10 mins by radio-HPLC analysis; format: ADME, organism-based; details: read-out: Stability
[24] = Biodistribution in Wistar rat brown adipose tissue assessed as standard uptake value at 1.7 MBq, iv administered as single dose measured after 5 mins post-injection by gamma counting; format: ADME, organism-based; details: in vivo
[25] = tested on: Harderian gland; assay: Biodistribution in Wistar rat harderian gland at 1.7 MBq, iv administered as single dose measured after 60 mins post-injection by gamma counting; format: ADME, organism-based; details: in vivo, 1 h
[26] = Ratio of drug level in harderian gland to blood in Wistar rat at 1.7 MBq, iv administered as single dose measured after 60 mins post-injection; format: ADME, organism-based
[27] = tested on: Liver; assay: Biodistribution in Wistar rat liver at 1.7 MBq, iv administered as single dose measured after 30 mins post-injection by gamma counting; format: ADME, organism-based; details: in vivo, 0.5 h
[28] = tested on: Femur; assay: Biodistribution in Wistar rat femur assessed as standard uptake value at 1.7 MBq, iv administered as single dose measured after 10 mins post-injection by gamma counting; format: ADME, organism-based; details: in vivo
[29] = tested on: Kidney; assay: Biodistribution in Wistar rat kidney at 1.7 MBq, iv administered as single dose measured after 60 mins post-injection by gamma counting; format: ADME, organism-based; details: in vivo, 1 h
[30] = Biodistribution in Wistar rat hair/skin assessed as standard uptake value at 1.7 MBq, iv administered as single dose measured after 5 mins post-injection by gamma counting; format: ADME, organism-based; details: in vivo
[31] = Octanol-phosphate buffer distribution coefficient, log D at pH 7.4 by shake-flask method; format: physicochemical
[32] = Biodistribution in Wistar rat thyroid gland assessed as standard uptake value at 1.7 MBq, iv administered as single dose measured after 10 mins post-injection by gamma counting; format: ADME, organism-based; details: in vivo
[33] = tested on: Pancreas; assay: Biodistribution in Wistar rat pancreas assessed as standard uptake value at 1.7 MBq, iv administered as single dose measured after 1 min post-injection by gamma counting; format: ADME, organism-based; details: in vivo
[34] = tested on: Lung; assay: Biodistribution in Wistar rat lung assessed as standard uptake value at 1.7 MBq, iv administered as single dose measured after 5 mins post-injection by gamma counting; format: ADME, organism-based; details: in vivo
[35] = tested on: Harderian gland; assay: Biodistribution in Wistar rat harderian gland at 1.7 MBq, iv administered as single dose measured after 30 mins post-injection by gamma counting; format: ADME, organism-based; details: in vivo, 0.5 h
[36] = tested on: Heart; assay: Biodistribution in Wistar rat heart assessed as standard uptake value at 1.7 MBq, iv administered as single dose measured after 5 mins post-injection by gamma counting; format: ADME, organism-based; details: in vivo
[37] = tested on: Liver; assay: Biodistribution in Wistar rat liver at 1.7 MBq, iv administered as single dose measured after 1 min post-injection by gamma counting; format: ADME, organism-based; details: in vivo
[38] = tested on: Brain; assay: Biodistribution in Wistar rat brain assessed as standard uptake value at 1.7 MBq, iv administered as single dose measured after 60 mins post-injection by gamma counting; format: ADME, organism-based; details: in vivo, 1 h
[39] = Biodistribution in Wistar rat thyroid gland at 1.7 MBq, iv administered as single dose measured after 60 mins post-injection by gamma counting; format: ADME, organism-based; details: in vivo, 1 h
[40] = tested on: Femur; assay: Biodistribution in Wistar rat femur assessed as standard uptake value at 1.7 MBq, iv administered as single dose measured after 1 min post-injection by gamma counting; format: ADME, organism-based; details: in vivo
[41] = Ratio of drug level in liver to blood in Wistar rat at 1.7 MBq, iv administered as single dose measured after 60 mins post-injection; format: ADME, organism-based
[42] = tested on: Kidney; assay: Biodistribution in Wistar rat kidney at 1.7 MBq, iv administered as single dose measured after 5 mins post-injection by gamma counting; format: ADME, organism-based; details: in vivo
[43] = tested on: Thymus; assay: Biodistribution in Wistar rat thymus at 1.7 MBq, iv administered as single dose measured after 10 mins post-injection by gamma counting; format: ADME, organism-based; details: in vivo

## O=C1Nc2ccccc2/C1=C/c1ccc([18F])cc1
[1]
  Drug uptake: 3.09 %ID
[2]
  Kp at 5 min: 4.7
[3]
  SUV: 4.26%
[4]
  SUV: 3.03%
[5]
  Drug uptake: 2.68 %ID
[6]
  Drug uptake: 0.34 %ID
[7]
  Drug uptake: 8.84 %ID
[8]
  remaining at 5 min: 40%
[9]
  SUV: 1.15%
[10]
  Drug uptake: 0.1 %ID
[11]
  Drug uptake: 30.16 %ID
[12]
  Drug uptake: 0.71 %ID
[13]
  remaining at 1 min: 70%
[14]
  SUV: 0.41%
[15]
  SUV: 0.28%
[16]
  Kp at 1 h: 1.8
[17]
  SUV: 0.55%
[18]
  Drug uptake: 0.35 %ID
[19]
  Drug uptake: 0.19 %ID
[20]
  Drug uptake: 0.54 %ID
[21]
  SUV: 0.7%
[22]
  SUV: 0.41%
[23]
  remaining at 10 min: 18%
[24]
  SUV: 2.29%
[25]
  Drug uptake: 0.06 %ID
[26]
  Kp at 1 h: 6.8
[27]
  Drug uptake: 8.95 %ID
[28]
  SUV: 0.51%
[29]
  Drug uptake: 0.91 %ID
[30]
  SUV: 0.92%
[31]
  logD: 3.39
[32]
  SUV: 0.75%
[33]
  SUV: 2.4%
[34]
  SUV: 1.3%
[35]
  Drug uptake: 0.14 %ID
[36]
  SUV: 1.33%
[37]
  Drug uptake: 17.16 %ID
[38]
  SUV: 0.18%
[39]
  Drug uptake: 0.01 %ID
[40]
  SUV: 0.89%
[41]
  Kp at 1 h: 7.9
[42]
  Drug uptake: 2.51 %ID
[43]
  Drug uptake: 0.23 %ID
